{"source": "patent US6506800B2", "about": "“1,4 diaryl-2,3-difluoro-2-butene insecticidal and acaricidal agents” (BASF Aktiengesellschaft, priority 2000, dated 2003)", "type_in_all_cases": "in vivo", "key": {"[1]": {"tested_on": "Aphis fabae, mixed instar, bean aphid (BA)", "experiment": "Bean aphid (BA) spray test on nasturtium", "set-up": "key: 0 = no effect; 1 = 10-25% kill; 2 = 26-35% kill; 3 = 36-45% kill; 4 = 46-55% kill; 5 = 56-65% kill; 6 = 66-75% kill; 7 = 76-85% kill; 8 = 86-99% kill; 9 = 100% kill", "conditions": "spray on infested nasturtium plants, 2 days, kill rating 0-9", "procedure": "Test solutions are prepared by dissolving the test compound in a 35% acetone in water mixture to give a concentration of 10000 ppm. Subsequent dilutions are made with water as needed. Aphis fabae, mixed instar, bean aphid (BA) Pots containing single nasturtium plants (Tropaeolum sp.) about 5 cm tall are infested with about 100-200 aphids one day before the test. Each pot is sprayed with the test solution for 2 revolutions of a 4 rounds per minute (rpm) turntable in a hood. The spray is directed to give complete coverage of the plants and aphids. The sprayed pots are set on their sides on white trays and held for 2 days, following which mortality estimates are made."}, "[2]": {"tested_on": "Heliothis virenscens, 3rd instar tobacco budworm (TBW)", "experiment": "Tobacco budworm (TBW) cotton cotyledon dip test", "set-up": "key: 0 = no effect; 1 = 10-25% kill; 2 = 26-35% kill; 3 = 36-45% kill; 4 = 46-55% kill; 5 = 56-65% kill; 6 = 66-75% kill; 7 = 76-85% kill; 8 = 86-99% kill; 9 = 100% kill", "conditions": "3 days, kill rating 0-9", "procedure": "(§1) Test solutions are prepared by dissolving the test compound in a 35% acetone in water mixture to give a concentration of 10000 ppm. Subsequent dilutions are made with water as needed.\nHeliothis virenscens, 3rd instar tobacco budworm (TBW)\nCotton cotyledons are dipped in the test solution and allowed to dry in a hood. When dry, each is cut into quarters and ten sections are placed individually in 30 ml plastic medicine cups containing a 5 to 7 mm long piece of damp dental wick. One 3rd instar caterpillar is added to each cup and a cardboard lid placed on the cup. Treatments are maintained for 3 days before mortality counts and estimates of reduction in feeding damage are made."}, "[3]": {"tested_on": "Spodoptera eridania, 3rd instar larvae, southern armyworm (SAW)", "experiment": "Southern armyworm (SAW) leaf-dip test", "conditions": "lima bean leaf dip, after 5 days, kill rating 0-9", "procedure": "as §1\nSpodoptera eridania, 3rd instar larvae, southern armyworm (SAW)\nA Sieva lima bean leaf expanded to 7-8 cm in length is dipped in the test solution with agitation for 3 seconds and allowed to dry in a hood. The leaf is then placed in a 100×10 mm petri dish containing a damp filter paper on the bottom and ten 3rd instar caterpillars. After 5 days, observations are made of mortality, reduced feeding, or any interference with normal molting."}, "[4]": {"tested_on": "Diabrotica virgifera virgifera Leconte, 3rd instar western corn rootworm (WCR)", "experiment": "Western corn rootworm (WCR) soil test", "conditions": "1.25 mg active ingredient per jar in soil (approx. 50 kg/ha), 5 days, kill rating 0-9", "procedure": "Diabrotica virgifera virgifera Leconte, 3rd instar western corn rootworm (WCR) One ccm of fine talc is placed in a 30 ml wide-mouth screw-top glass jar. One ml of the appropriate acetone test solution is pipetted onto the talc so as to provide 1.25 mg of active ingredient per jar. The jars are set under a gentle air flow until the acetone is evaporated. The dried talc is loosened, 1 ccm of millet seed is added to serve as food for the insects and 25 ml of moist soil is added to each jar. The jar is capped and the contents thoroughly mixed mechanically. Following this, ten 3rd instar rootworms are added to each jar and the jars are loosely capped to allow air exchange for the larvae. The treatments are held for 5 days when mortality counts are made. Missing larvae are presumed dead, since they decompose rapidly and cannot be found. The concentrations of active ingredient used in this test correspond approximately to 50 kg/ha."}, "[5]": {"tested_on": "Tetranychus urticae (OP-resistant strain), 2-spotted spider mite (TSM)", "experiment": "2-spotted spider mite (TSM) plant dip test", "set-up": "key: 0 = no effect; 1 = 10-25% kill; 2 = 26-35% kill; 3 = 36-45% kill; 4 = 46-55% kill; 5 = 56-65% kill; 6 = 66-75% kill; 7 = 76-85% kill; 8 = 86-99% kill; 9 = 100% kill", "conditions": "dip of infested lima bean plants, 2 days, kill rating 0-9", "procedure": "as §1\nTetranychus urticae (OP-resistant strain), 2-spotted spider mite (TSM)\nSieva lima bean plants with primary leaves expanded to 7-8 cm are selected and cut back to one plant per pot. A small piece is cut from an infested leaf taken from the main colony and placed on each leaf of the test plants. This is done about 2 hours before treatment to allow the mites to move over to the test plant to lay eggs. By the size of the cut, infested leaf is varied to obtain about 100 mites per leaf. At the time of test treatment, the piece of leaf used to transfer the mites is removed and discarded. The newly-infested plants are dipped in the test solution for 3 seconds with agitation and set in the hood to dry. After 2 days, one leaf is removed and mortality counts are made."}}}
{"smiles": "C=CC(/C(F)=C(\\F)Cc1cccc(Oc2ccccc2)c1)c1ccc(Cl)cc1", "note": "(centres unmarked) [Compound 3, 1-[(2E)-4-(4-chlorophenyl)-2,3-difluoro-2,5-hexadienyl]-3-phenoxybenzene]", "values": [{"measurement": "BA (100 ppm) rating", "setting": "[1]", "result": "9 (9 = 100% kill)"}, {"measurement": "TBW (100 ppm) rating", "setting": "[2]", "result": "9 (9 = 100% kill)"}, {"measurement": "SAW (100 ppm) rating", "setting": "[3]", "result": "9 (9 = 100% kill)"}, {"measurement": "WCR (50 ppm) rating", "setting": "[4]", "result": "9 (9 = 100% kill)"}, {"measurement": "TSM (100 ppm) rating", "setting": "[5]", "result": 0}]}
{"smiles": "COCCC(/C(F)=C(\\F)Cc1ccc(F)c(Oc2ccccc2)c1)c1ccc(Cl)cc1", "note": "(centres unmarked) [Compound 4, 4-[(2E)-4-(4-chlorophenyl)-2,3-difluoro-6-methoxy-2-hexenyl]-1-fluoro-2-phenoxybenzene]", "values": [{"measurement": "BA (100 ppm) rating", "setting": "[1]", "result": 0}, {"measurement": "TBW (100 ppm) rating", "setting": "[2]", "result": "9 (9 = 100% kill)"}, {"measurement": "SAW (100 ppm) rating", "setting": "[3]", "result": "9 (9 = 100% kill)"}, {"measurement": "WCR (50 ppm) rating", "setting": "[4]", "result": "9 (9 = 100% kill)"}, {"measurement": "TSM (100 ppm) rating", "setting": "[5]", "result": 0}]}
{"smiles": "COCCC(/C(F)=C(\\F)Cc1cccc(Oc2ccccc2)c1)c1ccc(Cl)cc1", "note": "(centres unmarked) [Compound 1, 1-[(2E)-4-(4-chlorophenyl)-2,3-difluoro-6-methoxy-2-hexenyl]-3-phenoxybenzene]", "values": [{"measurement": "BA (100 ppm) rating", "setting": "[1]", "result": "2 (2 = 26-35% kill)"}, {"measurement": "TBW (100 ppm) rating", "setting": "[2]", "result": 0}, {"measurement": "SAW (100 ppm) rating", "setting": "[3]", "result": "9 (9 = 100% kill)"}, {"measurement": "WCR (50 ppm) rating", "setting": "[4]", "result": "8 (8 = 86-99% kill)"}, {"measurement": "TSM (100 ppm) rating", "setting": "[5]", "result": 0}]}
{"smiles": "C=CCC(/C(F)=C(\\F)Cc1cccc(Oc2ccccc2)c1)c1ccc(Cl)cc1", "note": "(centres unmarked) [Compound 2, 1[(2E)-4-(4-chlorophenyl)-2,3-difluoro-2,6-heptadienyl]-3-phenoxybenzene]", "values": [{"measurement": "BA (100 ppm) rating", "setting": "[1]", "result": "9 (9 = 100% kill)"}, {"measurement": "TBW (100 ppm) rating", "setting": "[2]", "result": "9 (9 = 100% kill)"}, {"measurement": "SAW (100 ppm) rating", "setting": "[3]", "result": "9 (9 = 100% kill)"}, {"measurement": "WCR (50 ppm) rating", "setting": "[4]", "result": "9 (9 = 100% kill)"}, {"measurement": "TSM (100 ppm) rating", "setting": "[5]", "result": 0}]}
